Data as given in patent US9499550B2 (BRISTOL-MYERS SQUIBB COMPANY, priority 2012, dated 2016).
pEC50: −log10 of the molar value. Read-outs that look alike come from different tables or passages of the source.

Experiments:
[1] = tested on: HCV genotype 1a (H77 strain) replicon in HUH-7 cells; test: HCV replicon luciferase reporter assay, genotype 1a; type: cell-based; conditions: Hepatitis C virus, Huh-7, 72 h, 3 days incubation, read-out: LE_1a (EC50, range)
How it was run: (§1)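 Replicon inhibition for both genotypes was measured as Renilla luciferase signal (EnduRen, 7.5 μM final, 2 h) after 3-day, 37° C exposure of replicon-bearing HUH-7 cells in 4% FCS DMEM, 0.5% DMSO. The 1b construct carries S1179I; the 1a H77 construct carries P1496L and S2204I. Twenty-point, 3-fold dilutions were fitted four-parametrically for EC50, and CC50 was taken from multiplexed Cell Titer-Blue.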

[2] = tested on: HCV genotype 1b (Con1) replicon in HUH-7 cells; test: HCV replicon luciferase reporter assay, genotype 1b; type: cell-based; conditions: Hepatitis C virus, Huh-7, 72 h, 3 days incubation, read-out: LE_1b (EC50, range)
How it was run: as §1

[3] = HCV genotype 1a replicon luciferase
[4] = HCV genotype 1b replicon luciferase

| Compound | pEC50 [1, 3] | pEC50 [2, 4] | pEC50 ([1]; HCV genotype 1a replicon luciferase assay, range class) | pEC50 ([2]; HCV genotype 1b replicon luciferase assay, range class) |
| --- | --- | --- | --- | --- |
| CC[C@@H]1C[C@H](C)CC/C=C\[C@@H]2C[C@@]2(C(=O)NS(=O)(=O)C2(C)CC2)NC(=O)[C@@H]2C[C@@H](Oc3nc(-c4ccc(OC(C)C)cn4)cc4cc(OC)ccc34)CN2C(=O)[C@H]1NC(=O)OC(C)(C)C(C)(F)F [Compound 5487, 3,3-difluoro-2-methylbutan-2-yl((2R,6S,7R,9R,13aS,14aR,16aS,Z)-7-ethyl-2-((3-(5-isopropoxypyridin-2-yl)-6-methoxyisoquinolin-1-yl)oxy)-9-methyl-14a-(((1-methylcyclopropyl)sulfonyl)carbamoyl)-5,16-dioxo-1,2,3,5,6,7,8,9,10,11,13a,14,14a,15,16,16a-hexadecahydrocyclopropa[e]pyrrolo[1,2-a][1,4]diazacyclopentadecin-6-yl)carbamate] | 8.30 to 9.00 | 8.30 to 9.00 |  |  |
| [2H]C([2H])([2H])Oc1cnc(O[C@@H]2C[C@H]3C(=O)N[C@]4(C(=O)NS(=O)(=O)C5(C)CC5)C[C@H]4/C=C\CC[C@@H](C)C[C@@H](C)[C@H](NC(=O)NC(C)(C)C)C(=O)N3C2)c2ccccc12 [Compound 5107, (2R,6S,7R,9R,13aS,14aR,16aS,Z)-6-(3-(tert-butyl)ureido)-7,9-dimethyl-N-((1-methylcyclopropyl)sulfonyl)-5,16-dioxo-2-((4-(trideuteromethoxy)isoquinolin-1-yl)oxy)-1,2,3,5,6,7,8,9,10,11,13a,14,14a,15,16,16a-hexadecahydrocyclopropa[e]pyrrolo[1,2-a][1,4]diazacyclopentadecine-14a-carboxamide] | > 8.26 | > 8.26 |  |  |
| [2H]C([2H])([2H])C(C)(OC(=O)N[C@@H]1C(=O)N2C[C@H](Oc3nccc4cc(OC(C)C)ccc34)C[C@H]2C(=O)N[C@]2(C(=O)NS(=O)(=O)C3(C)CC3)C[C@H]2/C=C\CC[C@@H](C)C[C@H]1C)C([2H])([2H])[2H] [Compound 5165] | > 8.26 | > 8.26 |  |  |
| [2H]C([2H])([2H])C(OC(=O)N[C@@H]1C(=O)N2C[C@H](Oc3nccc4c5c(ccc34)N(C)CCO5)C[C@H]2C(=O)N[C@]2(C(=O)NS(=O)(=O)C3CC3)C[C@H]2/C=C\CC[C@H](C)C[C@H]1CC)(C([2H])([2H])[2H])C(F)(F)F [Compound 5311, 1,1,1,3,3,3-hexadeutero-2-(trifluoromethyl)propan-2-yl((2R,6S,7R,9S,13aS,14aR,16aS,Z)-14a-((cyclopropylsulfonyl)carbamoyl)-7-ethyl-9-methyl-2-((4-methyl-3,4-dihydro-2H-[1,4]oxazino[2,3-f]isoquinolin-7-yl)oxy)-5,16-dioxo-1,2,3,5,6,7,8,9,10,11,13a,14,14a,15,16,16a-hexadecahydrocyclopropa[e]pyrrolo[1,2-a][1,4]diazacyclopentadecin-6-yl)carbamate] | > 8.26 | > 8.26 |  |  |
| CCCOc1cc2c(Cl)cccc2c(O[C@@H]2C[C@H]3C(=O)N[C@]4(C(=O)NS(=O)(=O)C5(C)CC5)C[C@H]4/C=C\CC[C@@H](C)C[C@@H](C)[C@H](NC(=O)OC4C[C@@H]5C[C@H]5C4)C(=O)N3C2)n1 [Compound 1088, (1S,5S)-bicyclo[3.1.0]hexan-3-yl((2R,6S,7R,9R,13aS,14aR,16aS,Z)-2-((5-chloro-3-propoxyisoquinolin-1-yl)oxy)-7,9-dimethyl-14a-(((1-methylcyclopropyl)sulfonyl)carbamoyl)-5,16-dioxo-1,2,3,5,6,7,8,9,10,11,13a,14,14a,15,16,16a-hexadecahydrocyclopropa[e]pyrrolo[1,2-a][1,4]diazacyclopentadecin-6-yl)carbamate] |  |  | > 8.26 | > 8.26 |
